Tested on: HCT116 cell
Assay: Inhibitory activity against cancer cells (MTT cell viability), HCT116
Format: cell-based, human
Conditions: HCT 116, 48 hr incubation
Method: The inhibitory activities of biguanide derivatives against cancer cells were evaluated in the cell line SK-MEL-28 derived from human Melanoma cell, Miapaka-2 cell line derived from human pancreatic cancer cell and HCT116 cell line derived from human colorectal cancer cell by measuring the concentration that inhibits 50% of the growth of the cell lines (the half maximal inhibitory concentration, IC50).
Firstly, SK-MEL-28 cells were grown to be density of 5,000 cells/well in RPMI-1640 media supplemented with 10% (v/v) bovine calf serum, on 96-well plates for 16 hr. To measure the IC50 of each compound, the cells were incubated for 48 hr with the 100 mM PBS stock compounds at an amount of 10 mM, 1 mM, 200 uM, 40 uM, 8 uM, 1.6 uM, 0.32 uM or 0.064 uM; 50 mM PBS and EtOH stock compounds at an amount of 1 mM, 200 uM, 40 uM, 8 uM, 1.6 uM, 0.32 uM and 0.064 uM; and 50 mM DMSO stock compounds at an amount of 100 uM, 25 uM, 6.25 uM, 1.56 uM, 0.39 uM, 0.10 uM and 0.02 uM, respectively. To test the viable cells after incubation with each compound, the cell cultures were incubated additionally for 2 hr in the presence of MTT. The produced formazan crystals were dissolved with dimethyl sulfoxide and then measured by detecting the absorbance at 560 nm.
After the 48 hr incubation, the viable cells were counted on the well plates treated with the compounds of the Examples relative to the count of the viable cells on the non-treated plates, and then was represented as the cell viability (%). By using the cell viability (%) result, the cell viability curve was plotted, and IC50 was calculated from the curve to evaluate the inhibitory activity against cancer cells.
The inhibitory activities of biguanide derivatives against cancer cells of Miapaca-2 cell and HCT116 cell were evaluated according to the substantially same method as described in SK-MEL-28 cell, except that DMEM media supplemented with 10% (v/v) bovine calf serum was used instead of RPMI-1640 media supplemented with 10% (v/v) bovine calf serum for SK-MEL-28 cell.

Row | Compound | IC50 [µM]
1 | N1-3-phenoxyphenyl-N5-(4-trifluoromethoxy)phenyl biguanide [Example 76] | 3.12

Same assay, conditions: Homo sapiens, HCT 116, 48 hr incubation

Row | Compound | IC50 [µM]
2 | N=C(NC(=N)Nc1cccnc1)Nc1ccc(OC(F)(F)F)cc1 [Example 63, N1-3-pyridine-N5-(4-trifluoromethoxy)phenyl biguanide] | > 100
3 | N=C(NC(=N)N1CCCC1)NC1CCCc2ccccc21 (stereo not shown) [Example 15, N1-pyrrolidine-N5-(1,2,3,4-tetrahydronaphthalen-1-yl) biguanide] | 712
4 | N=C(Nc1nc2cc(F)ccc2[nH]1)N1CCCC1 [Example 93, N-(5-fluoro-1H-benzo[d]imidazol-2-yl)pyrrolidine-1-carboximidamide] | > 100
5 | N=C(Nc1nc2cc(OC(F)(F)F)ccc2[nH]1)N1CCCC1 [Example 92, N-(5-(trifluoromethoxy)-1H-benzo[d]imidazol-2-yl)pyrrolidine-1-carboximidamide] | > 100
6 | N=C(Nc1nc2ccccc2[nH]1)N1CCCC1 [Example 96, N-(1H-benzo[d]imidazol-2-yl)pyrrolidine-1-carboximidamide] | > 100
7 | CN(C(=N)NC(=N)N1CCCC1)c1c(F)cccc1F [Example 4, N1-pyrrolidine-N5-(2,6-difluoro-N5-methyl)phenyl biguanide] | > 100
8 | N=C(NC(=N)Nc1cccnc1)Nc1ccc(C(F)(F)F)cc1 [Example 62, N1-3-pyridine-N5-(4-trifluoromethyl)phenyl biguanide] | > 100
9 | N=C(NC(=N)N1CC=CCC1)Nc1ccc(CCNC(=O)CCCCC2CC3NC(=O)NC3S2)cc1 (stereo not shown) [Example 80, N-(4-(3-((5,6-dihydropyridin-1(2H)-yl)(imino)methyl)guanidino)phenethyl)-5-(2-oxohexahydro-1H-thieno[2,3-d]imidazol-5-yl)pentanamide] | > 100
10 | C[C@@H]1CCC[C@H](C)N1C(=N)NC(=N)Nc1ccc(CCNC(=O)CCCCC2CC3NC(=O)NC3S2)cc1 (stereo partly drawn) [Example 81, N-(4-(3-(((2R,6S)-2,6-dimethylpiperidin-1-yl)(imino)methyl)guanidino)phenethyl)-5-(2-oxohexahydro-1H-thieno[2,3-d]imidazol-5-yl)pentanamide] | > 100
11 | CC1CC(C)CN(C(=N)NC(=N)Nc2ccc(CCN)cc2)C1 (stereo not shown) [Example 49] | > 100
12 | CN1CCN(C(=N)NC(=N)Nc2ccccc2Br)CC1 [Example 33, N1-4-methyl piperazine-N5-(2-bromo)phenyl biguanide] | > 100
13 | N=C(NC(=N)Nc1cnccn1)Nc1ccc(OC(F)(F)F)cc1 [Example 66, N1-2-pyrazine-N5-(4-trifluoromethoxy)phenyl biguanide] | > 100
14 | CN(C)C(=N)NC(=N)Nc1ccc(SCC(=O)N2CCCCC2)cc1 [Example 61, N1,N1-dimethyl-N5-4-(2-oxo-2-(piperidin-1-yl)ethylthio)phenyl biguanide] | > 100
15 | N=C(NCc1ccc(C(=O)N2CCCCC2)cc1)NC(=N)N1CCCC1 [Example 25, N—(N-(4-(piperidine-1-carbonyl)benzyl)carbamimidoyl)pyrrolidine-1-carboximidamide] | > 100
16 | N=C(N)NC(=N)Nc1cc(C(F)(F)F)ccc1Cl [Example 57, N5-(2-chloro-5-trifluoromethyl)phenyl biguanide] | > 100
17 | CC1CCCCN1C(=N)NC(=N)Nc1ccc(CCNC(=O)CCCCC2CC3NC(=O)NC3S2)cc1 (stereo not shown) [Example 78, N-(4-(3-(imino(2-methylpiperidin-1-yl)methyl)guanidino)phenethyl)-5-(2-oxohexahydro-1H-thieno[2,3-d]imidazol-5-yl)pentanamide] | > 100
18 | CN1CCN(C(=N)NC(=N)Nc2ccc(Br)cc2)CC1 [Example 31, N1-4-methyl piperazine-N5-(4-bromo)phenyl biguanide] | 93.6
19 | N=C(N)NC(=N)Nc1ccc(Cl)cc1Cl [Example 54] | > 100
20 | Cc1ccc2[nH]c(NC(=N)N3CCCC3)nc2c1 [Example 94, N-(5-methyl-1H-benzo[d]imidazol-2-yl)pyrrolidine-1-carboximidamide] | > 100
21 | CN1CCN(C(=N)NC(=N)NCc2ccc(C(F)(F)F)c(F)c2)CC1 [Example 42, N1-4-methyl piperazine-N5-(3-fluoro-4-trifluoromethyl)benzyl biguanide] | > 100
22 | N=C(NC(=N)N1CC[C@H](O)C1)Nc1ccc(SCC(=O)N2CCCCC2)cc1 [Example 29, (S)-3-hydroxy-N—(N-(4-(2-oxo-2-(piperidin-1-yl)ethylthio)phenyl)carbamimidoyl)pyrrolidine-1-carboximidamide] | > 100
23 | N=C(NC(=N)N1CCCC1)Nc1ccc(CCC(=O)N2CCCCC2)cc1 [Example 26, N—(N-(4-(3-oxo-3-(piperidin-1-yl)propyl)phenyl)carbamimidoyl)pyrrolidine-1-carboximidamide] | > 100
24 | COc1ccc(NC(=N)NC(=N)N2CCCC2)cc1 [Example 2, N1-pyrrolidine-N5-(4-methoxy)phenyl biguanide] | > 100
25 | N=C(N)NC(=N)Nc1ccc(F)cc1 [Example 55, N5-4-fluorophenyl biguanide] | > 100
26 | N=C(NC(=N)Nc1ccc(F)c(C(F)(F)F)c1)Nc1cccnc1 [Example 65, N1-3-pyridine-N5-(4-fluoro-3-trifluoromethyl)phenyl biguanide] | > 100
27 | CN1CCN(C(=N)NC(=N)Nc2cccc(Br)c2)CC1 [Example 32, N1-4-methyl piperazine-N5-(3-bromo)phenyl biguanide] | 90.3

Other lines, results leading:

Row | IC50 [µM] | Compound
28 | 68.5 | N=C(NC(=N)NC1CCCC1)Nc1ccc(F)cc1 [Example 69, N1-cyclopentyl-N5-(4-fluoro)phenyl biguanide]
29 | 56.8 | N=C(NC(=N)N1CCCC1)Nc1ccc(CNC(=O)c2ccccc2-c2c3ccc(=O)cc-3oc3cc(O)ccc23)cc1 [Example 83, 2-(6-hydroxy-3-oxo-3H-xanthen-9-yl)-N-(4-(3-(imino(pyrrolidin-1-yl)methyl)guanidino)benzyl)benzamide]
30 | 49.8 | N=C(N)NC(=N)Nc1ccc(SC(F)(F)F)cc1 [Example 60, N5-(4-trifluoromethylthio)phenyl biguanide]
31 | 34.8 | N=C(N)NC(=N)Nc1ccc(Cl)c(Cl)c1 [Example 56]
32 | 33.8 | CCN1CCN(C(=N)NC(=N)Nc2ccc(OC(F)(F)F)cc2)CC1 [Example 45, N1-4-ethyl piperazine-N5-(4-trifluoromethoxy)phenyl biguanide]
33 | 32.4 | CN1CCN(C(=N)NC(=N)Nc2ccc(F)c(C(F)(F)F)c2)CC1 [Example 35, N1-4-methyl piperazine-N5-(4-fluoro-3-trifluoromethyl)phenyl biguanide]
34 | 32.3 | CN1CCN(C(=N)NC(=N)Nc2ccc(OC(F)(F)F)c(F)c2)CC1 [Example 37, N1-4-methyl piperazine-N5-(3-fluoro-4-trifluoromethoxy)phenyl biguanide]
35 | 28.8 | CC1CC(C)CN(C(=N)NC(=N)Nc2ccc(CNC(=O)c3ccccc3-c3c4ccc(=O)cc-4oc4cc(O)ccc34)cc2)C1 (stereo not shown) [Example 85, N-(4-(3-((3,5-dimethylpiperidin-1-yl)(imino)methyl)guanidino)benzyl)-2-(6-hydroxy-3-oxo-3H-xanthen-9-yl)benzamide]
36 | 27.7 | N=C(NC(=N)N1CCc2ccccc21)Nc1ccc(Oc2ccccc2)cc1 [Example 90, N—(N-(4-phenoxyphenyl)carbamimidoyl)indoline-1-carboximidamide]
37 | 8.8 | N=C(NCc1ccco1)NC(=N)Nc1ccc(C(F)(F)F)cc1 [Example 72, N1-furan-2-ylmethyl-N5-(4-trifluoromethyl)phenyl biguanide]
38 | 8.21 | N=C(NC(=N)Nc1ccc(-c2ccccc2)cc1)Nc1ccc(OC(F)(F)F)cc1 [Example 75, N1-(4-trifluoromethoxy)phenyl-N5-(N-biphenyl-4-yl) biguanide]
39 | 7.83 | N=C(NC(=N)N1CCC(F)(F)C1)Nc1ccc(OC(F)(F)F)cc1 [Example 51, N1-3,3-difluoro pyrrolidine-N5-(4-trifluoromethoxy)phenyl biguanide]
40 | 7.5 | CN1CCN(C(=N)NC(=N)Nc2ccc(Cl)c(OC(F)(F)F)c2)CC1 [Example 39, N1-4-methyl piperazine-N5-(4-chloro-3-trifluoromethoxy)phenyl biguanide]
41 | 7.42 | N=C(NC(=N)N1CCc2ccccc21)Nc1ccc(OC(F)(F)F)cc1 [Example 88, N—(N-(4-(trifluoromethoxy)phenyl)carbamimidoyl)indoline-1-carboximidamide]
42 | 6.46 | N=C(NC(=N)N1CCCC1)Nc1ccc(-c2cccc(F)c2)cc1 [Example 11, N1-pyrrolidine-N5-(3′-fluorobiphenyl-4-yl) biguanide]
43 | 6.28 | N=C(NC(=N)N1CCCC1)Nc1cccc(-c2ccc(F)cc2)c1 [Example 10, N1-pyrrolidine-N5-(4′-fluorobiphenyl-3-yl) biguanide]

Source: US10221190B2, “Biguanide compounds and use thereof” (IMMUNOMET THERAPEUTICS INC., priority 2013, dated 2019)
